15 molecules from patent US10827755B2, “Insecticidal compositions and methods” (priority 2015, dated 2020) can be followed below.

What all share (format): in vivo
Assay [1] has as its system Western Tarnished Plantbug. The experiment in a line: Insect feeding assay (Example 4), Western tarnished plantbug. Set-up: key: “+” represents mortality or stunting significantly different compared to the untreated control; “−” represents no significant difference in mortality or stunting compared to the untreated control. The following applies: 0.05 mg/mL diet overlay, nymph, 6 days, 27° C. The method, then: (§1) For evaluating control of insect species in this example, the test unit consisted of a 96-well bioassay plate filled with species-specific artificial diet. Compounds were dissolved in DMSO and added as diet overlay to the indicated concentration and dried/maintained overnight before infestation. Once dry, the bioassay plates were infested with a single neonate larva (nymph for lygus) per well. The bioassay plates were held for 6 days in an incubator at 27° C. and 50% relative humidity. Each well was assessed for infestation and contamination. Wells that were contaminated or not infested were not included in the stunting and mortality assessment. A stunting score was reported based on the relative size of the survivors within the 8-well column with averaging across a 3 column replicate. Untreated control insects were used as a reference.

Assay [2] relates to Fall Armyworm (FAW). Description: Insect feeding assay (Example 4), fall armyworm. Set-up: key: “+” represents mortality or stunting significantly different compared to the untreated control; “−” represents no significant difference in mortality or stunting compared to the untreated control. The following applies: 0.05 mg/mL diet overlay, 6 days, 27° C. The method, then:
as §1

Assay [3] concerns Yellow Fever Mosquito (YEW). The experiment in a line: Insect feeding assay (Example 4), yellow fever mosquito. The settings on record: 0.05 mg/mL diet overlay, 6 days, 27° C. Set-up: key: “+” represents mortality or stunting significantly different compared to the untreated control; “−” represents no significant difference in mortality or stunting compared to the untreated control. The method, then:
as §1

Assay [4] deals with Western Corn Root Worm (WCR). The experiment in a line: Insect feeding assay (Example 3), Western corn rootworm. Details: key: A “+” score was given to samples which showed any level of stunting and/or mortality higher than that of the untreated controls; A “−” score was given to samples which showed no activity. The following applies: 0.1 mg/mL diet overlay, 6 days, 27° C., summary of three replicates. The method, then:
(§2) For evaluating control of insect species, the test unit consisted of a 96-well bioassay plate filled with a species-specific artificial diet. Compounds were dissolved in DMSO and added as diet overlay to the indicated concentration, and dried/maintained overnight before infestation. Once dry, the bioassay plates were infested with a single neonate larva (nymph for lygus) per well. The bioassay plates were then held for 6 days in an incubator at 27° C. and 50% relative humidity. Sample response was then visually assessed based on mortality and stunting of the insect. […] Western corn rootworm data represents a summary of three replicates. Data for all other insect species represents a summary of two replicates.

Assay [5] deals with Yellow Fever Mosquito (YFM). Description: Insect feeding assay (Example 3), yellow fever mosquito. The following applies: 0.1 mginiL diet overlay, 6 days, 27° C., summary of two replicates. Set-up: key: A “+” score was given to samples which showed any level of stunting and/or mortality higher than that of the untreated controls; A “−” score was given to samples which showed no activity. The method, then:
as §2

Assay [6] has as its system Diamondback Moth (DBM). Description: Insect feeding assay (Example 4), diamondback moth. Details: key: “+” represents mortality or stunting significantly different compared to the untreated control; “−” represents no significant difference in mortality or stunting compared to the untreated control. The following applies: 0.05 mg/mL diet overlay, 6 days, 27° C. The method, then: as §1

Assay [7] concerns Soybean Looper (SL). The experiment in a line: Insect feeding assay (Example 4), soybean looper. Set-up: key: “+” represents mortality or stunting significantly different compared to the untreated control; “−” represents no significant difference in mortality or stunting compared to the untreated control. The settings on record: 0.05 mg/mL diet overlay, 6 days, 27° C. The method, then:
as §1

Assay [8] relates to Western Corn Rootworm (WCR). The experiment in a line: Insect feeding assay (Example 4), Western corn rootworm. Set-up: key: “+” represents mortality or stunting significantly different compared to the untreated control; “−” represents no significant difference in mortality or stunting compared to the untreated control. The settings on record: 0.05 mg/mL diet overlay, 6 days, 27° C. The method, then: as §1

The test system of assay [9] is Diamondback Moth (DBM). The experiment in a line: Insect feeding assay (Example 3), diamondback moth. Details: key: A “+” score was given to samples which showed any level of stunting and/or mortality higher than that of the untreated controls; A “−” score was given to samples which showed no activity. The following applies: 0.1 mg/mL diet overlay, 6 days, 27° C., summary of two replicates. The method, then:
as §2

In the case of `Cc1cc(C)c(-c2nc(-c3ccccc3)c(-c3ccccc3)[nH]2)c(C)c1` [I-i], the “WTP (0.05 mg/mL mortality or stunting)” value in assay [1] was “−”. For the same molecule, in assay [2], the “FAW (0.05 mg/mL) mortality or stunting” value is “−”. In addition, in assay [3], the “YFM (0.05 mg/mL) mortality or stunting” value is given as “−”. For the same molecule, the “WCR (0.1 mg/mL) mortality and stunting score” value in assay [4] is “+”. Also, the “YEM (0.1 mginiL) mortality and stunting score” value (“YEM” below) in assay [5] is listed as “+”. Further, the “DBM (0.05 mg/mL) mortality or stunting” value in [6] is “+”. For the same molecule, the “SL (0.05 mg/mL) mortality or stunting” value in [7] is “−”.

In the case of `Cc1ccc(C)c(-c2nc(-c3c(Cl)cccc3Cl)[nH]c2-c2ccccc2)c1` [I-ii], the “WTP (0.05 mg/mL mortality or stunting)” value in assay [1] was “+”. Moreover, the “FAW (0.05 mg/mL) mortality or stunting” value in [2] was “+”. For the same molecule, the “YFM (0.05 mg/mL) mortality or stunting” value in assay [3] was “+”. Also, the “WCR (0.1 mg/mL) mortality and stunting score” value in assay [4] is reported as “+”. In addition, the “YEM” value in assay [5] was “+”. The “DBM (0.05 mg/mL) mortality or stunting” value in [6] is on record as “+”. Moreover, the “SL (0.05 mg/mL) mortality or stunting” value in assay [7] is reported as “+”.

As for `Cc1ccc(C)c(-c2nc(-c3c(F)cccc3Cl)[nH]c2-c2ccccc2)c1` [I-iii], the “YEM” value in [5] is reported as “+”.

As to `COc1ccc(-c2nc(-c3ccccc3)c(-c3ccccc3)[nH]2)c(OC)c1` [I-iv], in assay [1], the “WTP (0.05 mg/mL mortality or stunting)” value is reported as “−”. In addition, in [2], the “FAW (0.05 mg/mL) mortality or stunting” value is “−”. In addition, the “YFM (0.05 mg/mL) mortality or stunting” value in assay [3] is “+”. In addition, the “WCR (0.1 mg/mL) mortality and stunting score” value in [4] is recorded as “+”. The “YEM” value in assay [5] was “+”. Besides, the “DBM (0.05 mg/mL) mortality or stunting” value in assay [6] was “+”. In [7], the “SL (0.05 mg/mL) mortality or stunting” value is listed as “−”.

Regarding `CSc1ccc(-c2nc(-c3ccc(C)cc3)c(-c3ccc(C)cc3)[nH]2)cc1` [I-ix], the “WTP (0.05 mg/mL mortality or stunting)” value in assay [1] is “−”. Moreover, in [2], the “FAW (0.05 mg/mL) mortality or stunting” value is given as “+”. Besides, the “YFM (0.05 mg/mL) mortality or stunting” value in assay [3] is “−”. Also, the “DBM (0.05 mg/mL) mortality or stunting” value in assay [6] is given as “+”. For the same molecule, in assay [7], the “SL (0.05 mg/mL) mortality or stunting” value is “+”. For the same molecule, the “WCR (0.05 mg/mL) mortality or stunting” value in assay [8] was “+”.

Turning to `CCOc1ccccc1-c1nc(-c2ccccc2)c(-c2ccccc2)[nH]1` [I-v], in [1], the “WTP (0.05 mg/mL mortality or stunting)” value is on record as “−”. The “FAW (0.05 mg/mL) mortality or stunting” value in assay [2] was “−”. In addition, in assay [3], the “YFM (0.05 mg/mL) mortality or stunting” value is “−”. Moreover, the “WCR (0.1 mg/mL) mortality and stunting score” value in assay [4] is on record as “+”. The “DBM (0.05 mg/mL) mortality or stunting” value in assay [6] is given as “−”. Further, the “SL (0.05 mg/mL) mortality or stunting” value in [7] was “−”.

In the case of `C#CCOc1ccccc1-c1nc(-c2ccccc2)c(-c2ccccc2)[nH]1` [I-vi], the “WTP (0.05 mg/mL mortality or stunting)” value in assay [1] was “+”. Also, the “FAW (0.05 mg/mL) mortality or stunting” value in assay [2] is reported as “−”. Moreover, the “YFM (0.05 mg/mL) mortality or stunting” value in assay [3] is on record as “+”. In addition, in [6], the “DBM (0.05 mg/mL) mortality or stunting” value is “+”. Besides, in assay [7], the “SL (0.05 mg/mL) mortality or stunting” value is reported as “−”.

On to `Clc1cccc(-c2[nH]c(-c3ccc(Cl)cc3Cl)nc2-c2ccccc2)c1` [I-vii], for which, in assay [1], the “WTP (0.05 mg/mL mortality or stunting)” value is listed as “−”. Further, the “FAW (0.05 mg/mL) mortality or stunting” value in [2] is “+”. Moreover, the “YFM (0.05 mg/mL) mortality or stunting” value in assay [3] is recorded as “+”. Moreover, the “DBM (0.05 mg/mL) mortality or stunting” value in assay [6] was “+”. In addition, in [7], the “SL (0.05 mg/mL) mortality or stunting” value is reported as “+”.

As to `COc1ccc(-c2nc(-c3ccccc3)c(-c3ccccc3)[nH]2)c(OC)c1OC` [I-viii], the “WTP (0.05 mg/mL mortality or stunting)” value in assay [1] was “−”. In addition, the “FAW (0.05 mg/mL) mortality or stunting” value in assay [2] is recorded as “−”. The “YFM (0.05 mg/mL) mortality or stunting” value in [3] is recorded as “+”. Further, in assay [6], the “DBM (0.05 mg/mL) mortality or stunting” value is “+”. In addition, the “SL (0.05 mg/mL) mortality or stunting” value in assay [7] is reported as “−”. Besides, the “WCR (0.05 mg/mL) mortality or stunting” value in [8] was “+”.

For `O=C(c1ccc(F)cc1)c1ccc(-c2nc(-c3cccc(F)c3)[nH]c2-c2ccccc2)cc1` [I-x], in assay [1], the “WTP (0.05 mg/mL mortality or stunting)” value is on record as “+”. Besides, the “FAW (0.05 mg/mL) mortality or stunting” value in assay [2] is “+”. Moreover, the “YFM (0.05 mg/mL) mortality or stunting” value in [3] is recorded as “−”. The “DBM (0.05 mg/mL) mortality or stunting” value in assay [6] is on record as “+”. The “SL (0.05 mg/mL) mortality or stunting” value in assay [7] is reported as “+”. In addition, in assay [8], the “WCR (0.05 mg/mL) mortality or stunting” value is listed as “+”.

On to `C=CCNC(=O)c1cn(-c2ccc(C)cc2)nc1-c1ccccc1` [II-i], for which the “YEM” value in assay [5] is “+”. Further, the “DBM (0.05 mg/mL) mortality or stunting” value in assay [6] is reported as “+”. The “DBM (0.1 mg/mL) mortality and stunting score” value in assay [9] is recorded as “+”.

As to `CC1CCCCC1NC(=O)c1cn(-c2ccccc2)nc1-c1cccs1` (stereo not drawn) [II-ii], the “WTP (0.05 mg/mL mortality or stunting)” value in assay [1] is “−”. For the same molecule, in assay [2], the “FAW (0.05 mg/mL) mortality or stunting” value is “−”. Besides, the “YFM (0.05 mg/mL) mortality or stunting” value in assay [3] is given as “−”. Also, in assay [6], the “DBM (0.05 mg/mL) mortality or stunting” value is recorded as “−”. Moreover, in assay [7], the “SL (0.05 mg/mL) mortality or stunting” value is on record as “−”. Moreover, the “DBM (0.1 mg/mL) mortality and stunting score” value in assay [9] was “+”.

With `CCOCCNC(=O)c1cn(C)nc1-c1ccccc1Cl` [II-iii], the “WTP (0.05 mg/mL mortality or stunting)” value in assay [1] is “−”. In addition, in [2], the “FAW (0.05 mg/mL) mortality or stunting” value was “−”. In addition, the “YFM (0.05 mg/mL) mortality or stunting” value in assay [3] was “−”. In addition, in assay [5], the “YEM” value is given as “+”. Further, in [6], the “DBM (0.05 mg/mL) mortality or stunting” value is reported as “−”. Moreover, the “SL (0.05 mg/mL) mortality or stunting” value in [7] was “−”.

Regarding `Cn1cc(C(=O)NCCC2CCCO2)c(-c2ccccc2Cl)n1` (stereo not drawn) [II-iv], the “WTP (0.05 mg/mL mortality or stunting)” value in [1] is reported as “−”. In [2], the “FAW (0.05 mg/mL) mortality or stunting” value is given as “−”. In addition, the “YFM (0.05 mg/mL) mortality or stunting” value in [3] was “−”. For the same molecule, in [5], the “YEM” value was “+”. In addition, in assay [6], the “DBM (0.05 mg/mL) mortality or stunting” value is “−”. Moreover, the “SL (0.05 mg/mL) mortality or stunting” value in assay [7] is given as “−”.

As to `Cn1cc(C(=O)NC2CCSCC2)c(-c2ccccc2Cl)n1` [II-v], in assay [5], the “YEM” value is “+”.
